Experimental data taken from patent publication US10577315B2, “Compositions and methods for treatment of prostate carcinoma” (Pellficure Pharmaceuticals, Inc., priority 2014, dated 2020).

Columns and labels:
[1] = system: PTEN-P2/GFP prostate cancer cells; test: Effect of 1,4-naphthoquinone analogs on PTEN-P2/GFP cell proliferation (WST-1 cell viability, 24 h); assay type: cell-based; details: Mus musculus, WST-1, medium with 10% FBS and DHT, read-out: PTEN-P2/GFP cell proliferation, percent of control
Method in brief: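 PTEN-P2/GFP cells, 8000/well, in medium with 10% FBS and 10^−8M DHT, dosed next day with increasing analog concentrations (constant DMSO) for 24 h at 37 °C, 5% CO2. Viability read by WST-1 after 3 h at 37 °C, OD at 460 nm.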

[2] = system: human breast cancer SKBR-3 cells; test: Dose response of 1,4-naphthoquinone analogs in human breast cancer cells SKBR-3 (WST-1, 24 h); assay type: cell-based
Experimental: (§1) 100 microliters of human breast cancer SKBR-3 cells were plated at a density of 8000 cells/well in 96-well plates (triplicates) in growing medium containing 10% Fetal Bovine Serum, penicillin/streptomycin, and glutamine. The next day, increasing concentrations of a 1,4-naphthoquinone analog (diluted from 10 mM DMSO stock solutions) were added. DMSO used as solvent for all analogs, was kept constant through the 96-well plates. The control consisted of DMSO alone. The cells were subsequently incubated for 24 hours at 37° C. and 5% CO2 in normal cell growth conditions. Cell viability was assessed by adding 9 μL/well of WST-1 reagent (Clontech), which measured mitochondrial activity of live cells. […] The incubation time was 3 hours at 37° C. Optical density of the cell samples was measured at 460 nm, by using plate reader Spectra Max 250 (Molecular Devices). The drug was determined to be cytotoxic when OD values show an inverse correlation with analog concentrations.

[3] = system: human fibrosarcoma HT1080 cells; test: Dose response of 1,4-naphthoquinone analogs in human fibrosarcoma cells HT1080 (WST-1, 24 h); assay type: cell-based
Experimental: as §1, with “fibrosarcoma HT1080” for “breast cancer SKBR-3”

[4] = system: H2B-GFP-PTEN-P2 tumor cells; test: In vivo effect combined with castration in the pseudo-orthotopic chamber model for prostate cancer; set-up: species or system mouse; details: orally once a day in sesame seed oil, equimolar to 1 mg/kg plumbagin, castrated male nu/nu mice
From the text: A syngeneic pseudo-orthotopic in vivo model was developed to study the early steps of prostate cancer. Chambers are surgically placed into the dorsal skinfold of male mice. Briefly, male mice (25-30 g body weight) are anesthetized and placed on a heating pad. Two symmetrical titanium frames are implanted into the dorsal skinfold. A circular layer is excised from one of the skin layers. The underlying muscle and subcutaneous tissues are covered with a glass coverslip incorporated in one of the frames. After a recovery period of 2-3 days, stoma tissue and tumor cells are carefully placed in the chamber.
Male Nude mice (25-35 g body weight) are anesthetized (7.3 mg ketamine hydrochloride and 2.3 mg xylazine/100 g body weight, i.p.) and placed on a heating pad. Two symmetrical titanium frames are implanted into a dorsal skinfold, so as to sandwich the extended double layer of skin. […]
Liquid overlay plates are generated using 1% Agarose melted in DMEM that is added to round-bottom 96-well plates (50 ul/well). […] Viability is determined using Trypan blue. […]. The size of the implanted spheroid can be determined precisely to minimize variations between animals. […]
Fluorescence microscopy is performed using a Mikron Instrument Microscope equipped with epi-illuminator and video-triggered stroboscopic illumination from a xenon arc (MV-7600, EG&G). […]

| Compound | activity at 5 µM [1] [%] | activity at 10 µM [1] [%] | activity at 15 µM [1] [%] | human SKBR-3 cell proliferation, percent of control ([2]; 1.2 μM) | human SKBR-3 cell proliferation, percent of control ([2]; 2.5 μM) | human SKBR-3 cell proliferation, percent of control ([2]; 5 μM) | human SKBR-3 cell proliferation, percent of control ([2]; 7.5 μM) | human SKBR-3 cell proliferation, percent of control ([2]; 10 μM) | human SKBR-3 cell proliferation, percent of control ([2]; 15 μM) | human SKBR-3 cell proliferation, percent of control ([2]; 20 μM) | proliferation of human fibrosarcoma HT1080 cells, percent of control ([3]; 1.2 μM) | proliferation of human fibrosarcoma HT1080 cells, percent of control ([3]; 2.5 μM) | proliferation of human fibrosarcoma HT1080 cells, percent of control ([3]; 5 μM) | proliferation of human fibrosarcoma HT1080 cells, percent of control ([3]; 7.5 μM) | proliferation of human fibrosarcoma HT1080 cells, percent of control ([3]; 10 μM) | proliferation of human fibrosarcoma HT1080 cells, percent of control ([3]; 15 μM) | proliferation of human fibrosarcoma HT1080 cells, percent of control ([3]; 20 μM) | in vivo efficiency of combination treatment with castration compared with plumbagin and castration (FIG. 9) [4] | activity at 2 µM [1] [%] | activity at 3 µM [1] [%] | further results |
| --- | --- | --- | --- | --- | --- | --- | --- | --- | --- | --- | --- | --- | --- | --- | --- | --- | --- | --- | --- | --- | --- |
| COc1ccc(OC2=CC(=O)c3ccccc3C2=O)cc1 [Analog F05, 2-(4-methoxyphenoxy)-1,4-naphthoquinone] | 56.1 | 1.32 | 0.77 | 151.35% of control | 144.41% of control | 120.15% of control | 94.14% of control | 17.05% of control | 1.91% of control | 2.99% of control | 81.04% of control | 76.27% of control | 67.81% of control | 67.85% of control | 66.08% of control | 55.00% of control | 56.04% of control | – | – | – | activity at 1.2 µM ([1]; 1.2 μM): 102%; activity at 2.5 µM ([1]; 2.5 μM): 113%; activity at 7.5 µM ([1]; 7.5 μM): 8.83%; activity at 20 µM ([1]; 20 μM): 3.41% |
| O=C1C=C(Nc2ccccc2)C(=O)c2ccccc21 [Analog F35, 2-(phenylamino)naphthalene-1,4-dione] | – | – | – | – | – | – | – | – | – | – | – | – | – | – | – | – | – | more efficient in vivo than treatment with plumbagin and castration | – | – | – |
| O=C1C=C(Oc2ccccc2)C(=O)c2ccccc21 [Analog F01, 2-phenoxy-1,4-naphthoquinone] | 43.1 | 13.2 | 9.77 | 99.47% of control | 105.05% of control | 85.33% of control | 61.15% of control | 4.30% of control | 1.90% of control | 2.19% of control | 85.21% of control | 81.88% of control | 66.22% of control | 73.66% of control | 69.05% of control | 41.07% of control | 18.29% of control | – | 91.7 | 77.9 | activity at 4 µM [1]: 63.4%; activity at 6 µM [1]: 30.9%; activity at 7 µM [1]: 24.1%; activity at 25 µM [1]: 9.86% |
| COc1cccc2c1C(=O)C=CC2=O [Analog F51, 5-methoxy-1,4-naphthoquinone] | 103 | 43.4 | – | – | – | – | – | – | – | – | – | – | – | – | – | – | – | more efficient in vivo than treatment with plumbagin and castration | 104 | 105 | activity at 1 µM ([1]; 1 μM): 103%; activity at 4 µM [1]: 105%; activity at 6 µM [1]: 94%; activity at 7 µM [1]: 85.7%; activity at 25 µM [1]: 9.58%; activity at 50 µM ([1]; 50 μM): 10.3% |
